Assay results from PMC9090415, “Discovery of small molecule inhibitors of Plasmodium falciparum apicoplast DNA polymerase” (Journal of Enzyme Inhibition and Medicinal Chemistry, 2022).

Molecular target: P. falciparum apicoplast DNA polymerase (Pf-apPOL) (Plasmodium falciparum, UniProt Q8ILY1)
Experiment: Fluorescence-based high-throughput DNA polymerase assay (molecular beacon), primary screen and dose-response
Format: biochemical
Description: The HT assay employs a molecular beacon, a stem-loop DNA template with a Cy3 dye and the Black Hole Quencher on the 3′ and 5′ ends of the DNA, respectively. Pf-apPOL concentration is based on a calculated absorptivity of ε280 = 56750 M^−1 cm^−1. Reactions were carried out at 25 °C, using Corning 3575 […] (well-volume, 20 µL). Assays testing for compound inhibition composed of reaction buffer (pH 7.9 in 50 mM potassium acetate, 20 mM Tris-acetate and 10 mM magnesium acetate), Pf-apPOL (20 nM), DNA substrate (20 nM), dNTPs (6 µM), and compound (10 µM in DMSO). The DNA and nucleotide substrates (dNTPs) were at concentrations of 20 nM and 6 µM, respectively, in the assay. Pf-apPOL was incubated in the reaction buffer with dNTPs and the compound of interest (10 µM, in the assay) at 25 °C for 10 min. The DNA substrate was then added and the reaction was allowed to proceed for 90 min at 25 °C.
Each assay plate contained 16 negative controls (no Pf-apPOL, DMSO present) and 16 positive controls (Pf-apPOL present, no DMSO). The fluorescence of each well was determined using a BioTek Synergy Neo fluorescence plate reader using excitation and emission wavelengths of 555 and 570 nm, respectively.
In the above, Min is the average of fluorescence emission of the negative controls (substrate only), Max the average fluorescence emission from the positive controls (enzyme + substrate), and Test the emission from the assays in the presence of compounds (enzyme + compound + substrates). […] […] The IC50 of each compound was determined using Equation (2): (2) IC50= Vmax/(1+ (I/IC50)^n)
In the above, n measures cooperativity, with n > 1 indicating synergistic binding of more than a single molecule of the compound.
To identify apPOL inhibitors we utilised our previously developed high-throughput DNA polymerase assay. The HT assay is based on a molecular beacon DNA template that forms a stem-loop with a Cy3 dye and the Black Hole Quencher on the 3′ and 5′ ends of the DNA, respectively. DNA polymerase activity extends an annealed primer through the stem region, displacing the fluorophore from the quencher, thereby increasing its fluorescence (Figure 1(A)). The assay accurately recapitulates the kinetic behaviour of apPOL, as measured through more conventional low-throughput gel-based assays. The Z′ factor for the assay described here was 0.9 across all plates (data not shown).
Figure 1. High-throughput screening. (A) The fluorescent-based DNA polymerase assay used to screen the compound libraries. The DNA template strand is a hairpin loop with a primer annealed to the loop. The 3’ end of the primer is 11 bases away from the 6 bp duplex. Strand displacement activity of the DNA polymerase separates the Cy3 dye from the Black hole quencher leading to an increase in fluorescent signal. (B) The high-throughput assay workflow. The DNA polymerase is incubated with […] compound for 10 min prior to addition of the hairpin substrate. The reaction is quenched at 3 different time points and the fluorescent signal is measured and % inhibition is determined using the provided equation.

Chain of P. falciparum apicoplast DNA polymerase (Pf-apPOL) (Q8ILY1 entry or part of it): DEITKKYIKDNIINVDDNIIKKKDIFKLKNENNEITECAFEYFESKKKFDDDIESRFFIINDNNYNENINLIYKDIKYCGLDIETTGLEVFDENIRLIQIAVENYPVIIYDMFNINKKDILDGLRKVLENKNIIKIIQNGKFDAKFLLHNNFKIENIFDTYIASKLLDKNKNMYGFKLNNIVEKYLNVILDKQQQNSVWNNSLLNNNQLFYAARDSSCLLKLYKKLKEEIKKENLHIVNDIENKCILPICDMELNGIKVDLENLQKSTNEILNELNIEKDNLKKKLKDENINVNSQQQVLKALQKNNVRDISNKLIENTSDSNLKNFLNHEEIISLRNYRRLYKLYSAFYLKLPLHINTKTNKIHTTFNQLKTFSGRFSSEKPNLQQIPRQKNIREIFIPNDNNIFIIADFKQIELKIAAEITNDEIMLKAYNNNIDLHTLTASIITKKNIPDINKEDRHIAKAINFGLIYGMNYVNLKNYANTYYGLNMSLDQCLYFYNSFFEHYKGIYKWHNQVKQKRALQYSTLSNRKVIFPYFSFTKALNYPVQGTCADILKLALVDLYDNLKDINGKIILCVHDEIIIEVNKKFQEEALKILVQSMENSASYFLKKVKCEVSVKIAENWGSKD

## CSCCC(C)(O)CNC(=O)C1CC1 (centres unmarked) [KU0200150]
'DNA Pol'; screening value, unit not given; 90 min, 10 µM
  DNA Pol: 33
DRC-1; 10'; concentration 2.5
  % inhibition Apo pol 10': 4.373%
DRC-1; 10'; concentration 5
  % inhibition Apo pol 10': 5.1384%
DRC-1; 10'; concentration 10
  % inhibition Apo pol 10': 19.1529%
DRC-1; 10'; concentration 20
  % inhibition Apo pol 10': 27.3456%
DRC-1; 10'; concentration 40
  % inhibition Apo pol 10': 40.4484%
DRC-1; 10'; concentration 80
  % inhibition Apo pol 10': 39.3482%
DRC-1; 90'; concentration 2.5
  % inhibition Apol 90': 7.582%
DRC-1; 90'; concentration 5
  % inhibition Apol 90': 12.5551%
DRC-1; 90'; concentration 10
  % inhibition Apol 90': 30.4266%
DRC-1; 90'; concentration 20
  % inhibition Apol 90': 38.5831%
DRC-1; 90'; concentration 40
  % inhibition Apol 90': 51.9729%
DRC-1; 90'; concentration 80
  % inhibition Apol 90': 47.9472%
DRC-1; 180'; concentration 2.5
  % inhibition apPOL 180': 8.962%
DRC-1; 180'; concentration 5
  % inhibition apPOL 180': 14.7367%
DRC-1; 180'; concentration 10
  % inhibition apPOL 180': 36.1682%
DRC-1; 180'; concentration 20
  % inhibition apPOL 180': 43.4388%
DRC-1; 180'; concentration 40
  % inhibition apPOL 180': 54.9454%
DRC-1; 180'; concentration 80
  % inhibition apPOL 180': 46.3242%
DRC-2, 5', concentration 2.5
  % inhibition Apo pol 5': 0.182%
DRC-2, 5', concentration 5
  % inhibition Apo pol 5': 4.75%
DRC-2, 5', concentration 10
  % inhibition Apo pol 5': 22%
DRC-2, 5', concentration 20
  % inhibition Apo pol 5': 24%
DRC-2, 5', concentration 40
  % inhibition Apo pol 5': 29%
DRC-2, 5', concentration 80
  % inhibition Apo pol 5': 27%
DRC-2, 40', concentration 2.5
  % inhibition Apol 40': 3.34%
DRC-2, 40', concentration 5
  % inhibition Apol 40': 11%
DRC-2, 40', concentration 10
  % inhibition Apol 40': 28%
DRC-2, 40', concentration 20
  % inhibition Apol 40': 33%
DRC-2, 40', concentration 40
  % inhibition Apol 40': 41%
DRC-2, 40', concentration 80
  % inhibition Apol 40': 41%
DRC-2, 90', concentration 2.5
  % inhibition ApPOL 90': 3.4%
DRC-2, 90', concentration 5
  % inhibition ApPOL 90': 11%
DRC-2, 90', concentration 10
  % inhibition ApPOL 90': 27%
DRC-2, 90', concentration 20
  % inhibition ApPOL 90': 30%
DRC-2, 90', concentration 40
  % inhibition ApPOL 90': 42%
DRC-2, 90', concentration 80
  % inhibition ApPOL 90': 41%
DRC-2, 180', concentration 2.5
  % inhibition apPOL 180': 0.149%
DRC-2, 180', concentration 5
  % inhibition apPOL 180': 5%
DRC-2, 180', concentration 10
  % inhibition apPOL 180': 17%
DRC-2, 180', concentration 20
  % inhibition apPOL 180': 18%
DRC-2, 180', concentration 40
  % inhibition apPOL 180': 32%
DRC-2, 180', concentration 80
  % inhibition apPOL 180': 32%
Conc 5 (unit not given); 40'; DRC-2
  % inhibition Apol 40': 11%
Conc 5 (unit not given); 90'; DRC-2
  % inhibition ApPOL 90': 11%
Conc 10 (unit not given); 90'; DRC-2
  % inhibition ApPOL 90': 27%
Conc 40 (unit not given); 40'; DRC-2
  % inhibition Apol 40': 41%
Conc 40 (unit not given); 180'; DRC-2
  % inhibition apPOL 180': 32%
Conc 80 (unit not given); 5'; DRC-2
  % inhibition Apo pol 5': 27%
Conc 80 (unit not given); 40'; DRC-2
  % inhibition Apol 40': 41%
Conc 80 (unit not given); 90'; DRC-2
  % inhibition ApPOL 90': 41%
Conc 80 (unit not given); 180'; DRC-2
  % inhibition apPOL 180': 32%
Primary screen hit value, DNA Pol (186 hits); 90 min, 10 µM
  DNA Pol: 33

## Cc1ccccc1NC(=O)Cn1ccc2c(=O)[nH]ccc21 [Molecule 85]
Supplemental file 2, sheet IC50 nontoxic compounds; Pf-apPOL
  IC50: 9.12 µM

## O=C(O)c1ccc(-c2nc3cc(-c4ccc5nc(-c6ccc(C(=O)O)cc6)[nH]c5c4)ccc3[nH]2)cc1 [Molecule 1, OC(=O)c1ccc(cc1)c1nc2c([nH]1)cc(cc2)c1ccc2c(c1)nc([nH]2)c1ccc(cc1)C(=O)O]
DRC-1; 10'; concentration 2.5
  % inhibition Apo pol 10': 4.605%
DRC-1; 10'; concentration 5
  % inhibition Apo pol 10': 47.5072%
DRC-1; 10'; concentration 10
  % inhibition Apo pol 10': 71.1755%
DRC-1; 10'; concentration 20
  % inhibition Apo pol 10': 72.8856%
DRC-1; 10'; concentration 40
  % inhibition Apo pol 10': 63.5867%
DRC-1; 10'; concentration 80
  % inhibition Apo pol 10': 67.7005%
DRC-1; 90'; concentration 2.5
  % inhibition Apol 90': 3.724%
DRC-1; 90'; concentration 5
  % inhibition Apol 90': 40.2973%
DRC-1; 90'; concentration 10
  % inhibition Apol 90': 67.3465%
DRC-1; 90'; concentration 20
  % inhibition Apol 90': 73.5196%
DRC-1; 90'; concentration 40
  % inhibition Apol 90': 66.9827%
DRC-1; 90'; concentration 80
  % inhibition Apol 90': 77.5146%
DRC-1; 180'; concentration 2.5
  % inhibition apPOL 180': 2.544%
DRC-1; 180'; concentration 5
  % inhibition apPOL 180': 30.2265%
DRC-1; 180'; concentration 10
  % inhibition apPOL 180': 61.3297%
DRC-1; 180'; concentration 20
  % inhibition apPOL 180': 73.7422%
DRC-1; 180'; concentration 40
  % inhibition apPOL 180': 70.4852%
DRC-1; 180'; concentration 80
  % inhibition apPOL 180': 81.7521%
DRC-2, 5', concentration 2.5 (unit not given)
  % inhibition Apo pol 5': 30%
DRC-2, 5', concentration 20 (unit not given)
  % inhibition Apo pol 5': 37%
DRC-2, 5', concentration 40 (unit not given)
  % inhibition Apo pol 5': 37%
DRC-2, 40', concentration 2.5 (unit not given)
  % inhibition Apol 40': 30%
DRC-2, 40', concentration 10 (unit not given)
  % inhibition Apol 40': 32%
DRC-2, 40', concentration 20 (unit not given)
  % inhibition Apol 40': 41%
DRC-2, 40', concentration 80 (unit not given)
  % inhibition Apol 40': 32%
DRC-2, 90', concentration 80 (unit not given)
  % inhibition ApPOL 90': 41%
DRC-2, 180', concentration 20 (unit not given)
  % inhibition apPOL 180': 37%
DRC-2; 5'; concentration 2.5
  % inhibition Apo pol 5': 30%
DRC-2; 5'; concentration 5
  % inhibition Apo pol 5': 7%
DRC-2; 5'; concentration 10
  % inhibition Apo pol 5': 33%
DRC-2; 5'; concentration 20
  % inhibition Apo pol 5': 37%
DRC-2; 5'; concentration 40
  % inhibition Apo pol 5': 37%
DRC-2; 5'; concentration 80
  % inhibition Apo pol 5': 22%
DRC-2; 40'; concentration 2.5
  % inhibition Apol 40': 30%
DRC-2; 40'; concentration 5
  % inhibition Apol 40': 4%
DRC-2; 40'; concentration 10
  % inhibition Apol 40': 32%
DRC-2; 40'; concentration 20
  % inhibition Apol 40': 41%
DRC-2; 40'; concentration 40
  % inhibition Apol 40': 48%
DRC-2; 40'; concentration 80
  % inhibition Apol 40': 32%
DRC-2; 90'; concentration 2.5
  % inhibition ApPOL 90': 25%
DRC-2; 90'; concentration 5
  % inhibition ApPOL 90': 1.89%
DRC-2; 90'; concentration 10
  % inhibition ApPOL 90': 28%
DRC-2; 90'; concentration 20
  % inhibition ApPOL 90': 40%
DRC-2; 90'; concentration 40
  % inhibition ApPOL 90': 53%
DRC-2; 90'; concentration 80
  % inhibition ApPOL 90': 41%
DRC-2; 180'; concentration 2.5
  % inhibition apPOL 180': 14%
DRC-2; 180'; concentration 5
  % inhibition apPOL 180': -1.88%
DRC-2; 180'; concentration 10
  % inhibition apPOL 180': 20%
DRC-2; 180'; concentration 20
  % inhibition apPOL 180': 37%
DRC-2; 180'; concentration 40
  % inhibition apPOL 180': 56%
DRC-2; 180'; concentration 80
  % inhibition apPOL 180': 49%
Primary screen value of the 186 hits; unit not given; 90 min, 10 µM
  DNA Pol: 68
Primary screen value, head "DNA Pol", unit not given; 90 min, 10 µM
  DNA Pol: 68
